Experimental data as given in patent publication US20110223256A1, “Method For Stabilizing Flavonoid Aqueous Dispersion” (STOKELY-VAN CAMP, INC., priority 2010, published 2011).

Assay: Shelf life of aqueous dispersion in 20 oz beverage
Type: physicochemical
Details: for Shelf Life (22-25° C.): aqueous dispersion in 20 oz beverage, stable = no settling, phase separation or precipitates
Protocol: As set forth in the examples below, stable aqueous dispersions containing bioactive compounds were prepared by using the solubilization and stabilization process. The resulting dispersions were fine, homogeneous, and stable. There were no settling, phase separation, and precipitates on the side of the bottle (See FIG. 3 and Table 1).

Shelf Life (22-25° C.)	SMILES	Length of time quercetin stays dispersed in a beverage (depending on the dispersion stabilizer(s) used)
Stable after at least 6 months	O=c1c(O)c(-c2ccc(O)c(O)c2)oc2cc(O)cc(O)c12 [Quercetin, 2-(3,4-dihydroxyphenyl)-3,5,7-trihydroxy-4H-chromen-4-one]	about 12 hours to about six months or longer
Stable after at least 3 months	COc1cc(/C=C/C(=O)CC(=O)/C=C/c2ccc(O)c(OC)c2)ccc1O [Curcumin]	–
Stable after at least 3 months	COc1ccc([C@@H]2CC(=O)c3c(O)cc(O[C@@H]4O[C@H](CO[C@@H]5O[C@@H](C)[C@H](O)[C@@H](O)[C@H]5O)[C@@H](O)[C@H](O)[C@H]4O)cc3O2)cc1O [Hesperedin]	–
Stable after at least 3 months	Oc1ccc(C=Cc2cc(O)cc(O)c2)cc1 [Resveratrol]	–
Stable after at least 3 months	C[C@@H]1CC[C@H]2[C@@H](C)C(=O)O[C@@H]3O[C@@]4(C)CC[C@@H]1[C@]32OO4 [Artemisinin, reference compound]	–
Stable after at least 3 months	O=C1C[C@@H](c2ccc(O)cc2)Oc2cc(O)cc(O)c21 [Naringenin]	–
Stable after at least 3 months	COc1ccc2oc(-c3ccc(OC)c(OC)c3)c(OC)c(=O)c2c1 [Tetramethoxyflavone, 3,6,3′,4′-Tetramethoxyflavone]	–
